Experimental findings from patent publication US20250388605A1, “HETEROBIFUNCTIONAL COMPOUNDS AND METHODS OF TREATING DISEASE” (Halda Therapeutics OpCo, Inc., priority 2022, published 2025) are described below.

For one test, the target named is T1, BRD4-BD2 (Homo sapiens, UniProt O60885).
T1 construct: made in house; host or cells: T7 phage grown in an E. coli host derived from the BL21 strain
The experiment in a line: Binding affinity to BRD4-BD2 (bromoKdELECT assay). The conditions noted are these: 11-point 3-fold dilution series.

In test [1] the test system is T-Rex 293 cell line SC3 cells having increased expression of androgen receptor protein due to exposure to doxycycline. The experiment in a line: Cellular growth inhibition, T-Rex 293 SC3 cells with doxycycline (increased androgen receptor expression), CellTiter-Glo. Format: cell-based. Conditions: T-Rex 293 SC3 cells with 10 ng/mL doxycycline (increased androgen receptor expression), 72 hours, CellTiter-Glo 2.0. In a few lines: (§1)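 Growth inhibition is measured in an inducible AR-expressing T-Rex 293 clone, SC3, cultured with or without 10 ng/mL doxycycline in hormone-depleted medium. Test compounds are applied for 72 hours. GI50 values derive from CellTiter-Glo 2.0 signal fitted by four-parameter regression.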
(In ATP-based viability assays light output follows the ATP content of the culture.)

In test [2] the test system is T-Rex 293 cell line SC3 cells lacking increased expression of androgen receptor protein. The experiment in a line: Cellular growth inhibition, T-Rex 293 SC3 cells without doxycycline (no increased androgen receptor expression), CellTiter-Glo. It counts as cell-based. The conditions noted are these: T-Rex 293 SC3 cells not exposed to doxycycline (no increased androgen receptor expression), 72 hours. In a few lines: as §1

A further test relates to VCaP cells. The experiment in a line: Cellular growth inhibition assay for VCaP cells, CellTiter-Glo. Format: cell-based, human. The conditions noted are these: 72 hours. The procedure, abridged:
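GI50 values come from four-parameter curve fits of luminescence data normalized to a zero baseline. Compound, in medium with 0.5% DMSO, was added one day after plating and left for 72 h before CellTiter-Glo 2.0 addition.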

Some results are limits rather than exact numbers.

Broadly, the Kd is the equilibrium constant for the complex coming apart. A higher Kd goes with lower affinity. Usually GI50 stands for the concentration at which growth is held to half of that of the control. Read a low GI50 as more potent growth inhibition. On to `Cn1cc(-c2cc(C(C)(C)O)ccc2Oc2ccc(N3CC(CN4CC5CC4CN5c4ncc(C(=O)N[C@H]5C(C)(C)[C@H](Oc6ccc(C#N)c(Cl)c6)C5(C)C)cn4)C3)cc2)c2cc[nH]c2c1=O` (stereo partly drawn) [Compound I-228], for which, at BRD4-BD2, the dissociation constant (Kd) was below 50 nM. In addition, the concentration for 50% growth inhibition (GI50) (in test [1]; in test [2]; in the test on VCaP cells (Homo sapiens)) was below 500 nM in each case.

On BRD4-BD2, `CCS(=O)(=O)c1ccc(OCC(CCCN2CCN(c3ncc(C(=O)NC4C(C)(C)C(Oc5ccc(C#N)c(Cl)c5)C4(C)C)cn3)CC2)C2CC2)c(-c2cn(C)c(=O)c3[nH]ccc23)c1` (stereo not drawn) [Compound I-231, N-[3-(3-chloro-4-cyano-phenoxy)-2,2,4,4-tetramethyl-cyclobutyl]-2-[4-[4-cyclopropyl-5-[4-ethylsulfonyl-2-(6-methyl-7-oxo-1H-pyrrolo[2,3-c]pyridin-4-yl)phenoxy]pentyl]piperazin-1-yl]pyrimidine-5-carboxamide] yielded a dissociation constant Kd below 50 nM. Also, the 50% growth inhibitory concentration (GI50) (in test [1]; in test [2]; in the test with VCaP cells (Homo sapiens)) was below 500 nM each time.

Consider `Cn1cc(-c2cc(C(C)(C)O)ccc2Oc2cccc(N3CC(CC4CCN(c5ncc(C(=O)N[C@H]6C(C)(C)[C@H](Oc7ccc(C#N)c(Cl)c7)C6(C)C)cn5)CC4)C3)c2F)c2cc[nH]c2c1=O` [Compound I-196], for which the Kd on BRD4-BD2 was below 50 nM. In addition, the results for the concentration for 50% growth inhibition (GI50) (in test [1]; in test [2]; in the test on VCaP cells) were below 500 nM, above 3000 nM and above 3000 nM, respectively.

As to `CCS(=O)(=O)Nc1ccc(Oc2ccc(OCC3CCN(c4ncc(C(=O)N[C@H]5C(C)(C)[C@H](Oc6ccc(C#N)c(Cl)c6)C5(C)C)cn4)CC3)cc2)c(-c2cn(C)c(=O)c3[nH]ccc23)c1` [Compound I-138], on BRD4-BD2, the Kd lay within 500 to 2500 nM. Moreover, the GI50 (in test [1]; in test [2]; in the test on VCaP cells) was below 500 nM each time.

On to `CCS(=O)(=O)Nc1ccc(Oc2cccc(OCCOC3CCN(c4ccc(C(=O)N[C@H]5C(C)(C)[C@H](Oc6ccc(C#N)c(Cl)c6)C5(C)C)nn4)CC3)c2)c(-c2cn(C)c(=O)c3[nH]ccc23)c1` [Compound I-11], for which, on BRD4-BD2, the Kd is below 50 nM. The concentration for 50% growth inhibition (GI50) (in test [1]; in test [2]; in the test with VCaP cells (Homo sapiens)) was below 500 nM throughout.

Turning to `CCS(=O)(=O)Nc1ccc(Oc2cccc(OCCN(C)c3ncc(C(=O)N[C@H]4C(C)(C)[C@H](Oc5ccc(C#N)c(Cl)c5)C4(C)C)cn3)c2)c(-c2cn(C)c(=O)c3[nH]ccc23)c1` [Compound I-1, N-((1r, 3r)-3-(3-chloro-4-cyanophenoxy)-2,2,4,4-tetramethylcyclobutyl)-2-((2-(3-(4-(ethylsulfonamido)-2-(6-methyl-7-oxo-6,7-dihydro-1H-pyrrolo[2,3-c]pyridin-4-yl)phenoxy)phenoxy)ethyl)(methyl)amino)pyrimidine-5-carboxamide], the Kd at BRD4-BD2 is below 50 nM. For the same compound, the GI50 in test [1] was below 500 nM; in test [2] it was 500 to 1500 nM; in the test with VCaP cells (Homo sapiens), below 500 nM.

`CN(CCCc1ccc(Oc2ccc(C(C)(C)O)cc2-c2cn(C)c(=O)c3[nH]ccc23)cc1)c1ncc(C(=O)N[C@H]2C(C)(C)[C@H](Oc3ccc(C#N)c(Cl)c3)C2(C)C)cn1` [Compound I-211] returned an equilibrium dissociation constant (Kd) at BRD4-BD2 of 50 to 500 nM. For the same compound, the GI50 (in test [1]; in test [2]; with VCaP cells (Homo sapiens)) was below 500 nM each time.

`Cn1cc(-c2cc(C(C)(C)O)ccc2Oc2cccc(OCCC3CCN(c4ncc(C(=O)N[C@H]5C(C)(C)[C@H](Oc6ccc(C#N)c(Cl)c6)C5(C)C)cn4)CC3)c2F)c2cc[nH]c2c1=O` [Compound I-142]: the Kd at BRD4-BD2 is 500 to 2500 nM. In addition, the 50% growth inhibitory concentration (GI50) was below 500 nM in test [1], 1500 to 3000 nM in test [2] and below 500 nM with VCaP cells (Homo sapiens).

Compound `Cn1cc(-c2cc(C(C)(C)O)ccc2Oc2ccc(CCOC3CCN(c4ncc(C(=O)N[C@H]5C(C)(C)[C@H](Oc6ccc(C#N)c(Cl)c6)C5(C)C)cn4)CC3)cc2)c2cc[nH]c2c1=O` [Compound I-194] had a Kd at BRD4-BD2 below 50 nM. In addition, the GI50 in test [1] was below 500 nM; in test [2], 1500 to 3000 nM; in the test on VCaP cells (Homo sapiens), 500 to 1500 nM.
